# Measurements: ChEMBL document CHEMBL5506042, “Discovery of the Clinical Candidate IDOR-1117-2520: A Potent and Selective Antagonist of CCR6 for Autoimmune Diseases” (J Med Chem, 2024)
# Tests used:
# [1] = Apparent permeability across apical to basolateral side in dog MDCK-II cells; assay type: ADME, cell-based, Canis lupus familiaris
# [2] = Oral bioavailability in Wistar rat at 100 mg/kg; assay type: ADME, organism-based; details: in vivo
# Cytochrome P450 3A4 [3] = target: T1, Cytochrome P450 3A4 (Homo sapiens, UniProt P08684); experiment: Inhibition of CYP3A4 (unknown origin); assay type: ADME
# T1 sequence (P08684 whole entry): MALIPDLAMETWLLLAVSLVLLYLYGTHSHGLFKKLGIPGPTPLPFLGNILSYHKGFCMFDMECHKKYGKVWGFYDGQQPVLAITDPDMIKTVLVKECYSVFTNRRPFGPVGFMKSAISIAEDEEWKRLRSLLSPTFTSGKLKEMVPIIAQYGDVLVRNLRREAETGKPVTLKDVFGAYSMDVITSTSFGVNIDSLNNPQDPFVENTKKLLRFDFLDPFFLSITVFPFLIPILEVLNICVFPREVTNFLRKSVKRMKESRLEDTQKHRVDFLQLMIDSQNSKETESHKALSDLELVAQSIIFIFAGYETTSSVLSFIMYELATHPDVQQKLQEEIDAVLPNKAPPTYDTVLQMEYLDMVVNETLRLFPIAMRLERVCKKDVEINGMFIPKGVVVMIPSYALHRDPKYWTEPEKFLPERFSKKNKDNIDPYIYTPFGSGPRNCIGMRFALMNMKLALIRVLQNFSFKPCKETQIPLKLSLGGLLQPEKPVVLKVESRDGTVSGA
# [4] = target: T2, Solute carrier organic anion transporter family member 1B1 (Homo sapiens, UniProt Q9Y6L6); experiment: Inhibition of OATP1B1 (unknown origin)
# T2 sequence (Q9Y6L6 whole entry): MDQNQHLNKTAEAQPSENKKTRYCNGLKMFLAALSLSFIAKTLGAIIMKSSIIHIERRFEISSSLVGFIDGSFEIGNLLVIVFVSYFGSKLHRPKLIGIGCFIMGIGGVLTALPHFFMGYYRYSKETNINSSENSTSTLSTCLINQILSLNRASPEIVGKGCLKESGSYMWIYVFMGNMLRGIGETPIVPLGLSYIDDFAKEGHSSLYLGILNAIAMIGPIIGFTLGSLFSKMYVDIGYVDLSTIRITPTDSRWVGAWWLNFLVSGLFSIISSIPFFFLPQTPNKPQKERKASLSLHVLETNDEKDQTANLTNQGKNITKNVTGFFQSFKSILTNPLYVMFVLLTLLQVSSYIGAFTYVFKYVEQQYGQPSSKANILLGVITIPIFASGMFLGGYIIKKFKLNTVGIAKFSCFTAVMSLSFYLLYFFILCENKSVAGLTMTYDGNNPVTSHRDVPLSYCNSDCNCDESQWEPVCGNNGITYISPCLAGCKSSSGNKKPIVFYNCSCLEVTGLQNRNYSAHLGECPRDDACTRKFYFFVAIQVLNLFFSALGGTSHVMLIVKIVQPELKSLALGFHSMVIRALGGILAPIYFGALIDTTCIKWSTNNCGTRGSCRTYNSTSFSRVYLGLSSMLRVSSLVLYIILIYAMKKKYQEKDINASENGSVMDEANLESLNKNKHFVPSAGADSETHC
# [5] = Intrinsic solubility of the compound at pH >11.5 using amorphous form of sample; assay type: physicochemical; details: read-out: Intrinsic_solubility
# [6] = Solubility of the compound at pH <[…] at 37 degC; assay type: physicochemical
# [7] = Oral bioavailability in Beagle dog at 10 mg/kg; assay type: ADME, organism-based, Canis lupus familiaris; details: in vivo
# [8] = Cmax in Beagle dog at 1 mg/kg, iv; assay type: ADME, organism-based, Canis lupus familiaris; details: in vivo
# [9] = Clearance in Beagle dog at 1 mg/kg, iv; assay type: ADME, organism-based, Canis lupus familiaris; details: in vivo
# [10] = AUC in Wistar rat at 100 mg/kg, po; assay type: ADME, organism-based; details: in vivo
# [11] = AUC in Wistar rat at 3 mg/kg, iv; assay type: ADME, organism-based; details: in vivo
# [12] = Oral bioavailability in Beagle dog at 3 mg/kg; assay type: ADME, organism-based, Canis lupus familiaris; details: in vivo
# [13] = Cmax in Wistar rat at 100 mg/kg, po; assay type: ADME, organism-based; details: in vivo
# [14] = Clearance in Wistar rat at 3 mg/kg, iv; assay type: ADME, organism-based; details: in vivo
# [15] = Solubility of the compound in aqueous medium at pH <[…]; assay type: physicochemical
# [16] = AUC in Beagle dog at 3 mg/kg, po; assay type: ADME, organism-based, Canis lupus familiaris; details: in vivo
# [17] = Tmax in Beagle dog at 3 mg/kg, po; assay type: ADME, organism-based, Canis lupus familiaris; details: in vivo
# [18] = AUC in Beagle dog at 10 mg/kg, po; assay type: ADME, organism-based, Canis lupus familiaris; details: in vivo
# [19] = Intrinsic clearance in human liver microsomes at 1 uM measured for 15 mins in presence of NADPH regenerating system measured per mg protein by LC-MS/MS analysis; assay type: ADME, Microsome; details: read-out: CLH
# [20] = target: ATP-dependent translocase ABCB1 (Homo sapiens, UniProt P08183); experiment: Inhibition of human MDR1
# Sequence of ATP-dependent translocase ABCB1 (P08183 whole entry): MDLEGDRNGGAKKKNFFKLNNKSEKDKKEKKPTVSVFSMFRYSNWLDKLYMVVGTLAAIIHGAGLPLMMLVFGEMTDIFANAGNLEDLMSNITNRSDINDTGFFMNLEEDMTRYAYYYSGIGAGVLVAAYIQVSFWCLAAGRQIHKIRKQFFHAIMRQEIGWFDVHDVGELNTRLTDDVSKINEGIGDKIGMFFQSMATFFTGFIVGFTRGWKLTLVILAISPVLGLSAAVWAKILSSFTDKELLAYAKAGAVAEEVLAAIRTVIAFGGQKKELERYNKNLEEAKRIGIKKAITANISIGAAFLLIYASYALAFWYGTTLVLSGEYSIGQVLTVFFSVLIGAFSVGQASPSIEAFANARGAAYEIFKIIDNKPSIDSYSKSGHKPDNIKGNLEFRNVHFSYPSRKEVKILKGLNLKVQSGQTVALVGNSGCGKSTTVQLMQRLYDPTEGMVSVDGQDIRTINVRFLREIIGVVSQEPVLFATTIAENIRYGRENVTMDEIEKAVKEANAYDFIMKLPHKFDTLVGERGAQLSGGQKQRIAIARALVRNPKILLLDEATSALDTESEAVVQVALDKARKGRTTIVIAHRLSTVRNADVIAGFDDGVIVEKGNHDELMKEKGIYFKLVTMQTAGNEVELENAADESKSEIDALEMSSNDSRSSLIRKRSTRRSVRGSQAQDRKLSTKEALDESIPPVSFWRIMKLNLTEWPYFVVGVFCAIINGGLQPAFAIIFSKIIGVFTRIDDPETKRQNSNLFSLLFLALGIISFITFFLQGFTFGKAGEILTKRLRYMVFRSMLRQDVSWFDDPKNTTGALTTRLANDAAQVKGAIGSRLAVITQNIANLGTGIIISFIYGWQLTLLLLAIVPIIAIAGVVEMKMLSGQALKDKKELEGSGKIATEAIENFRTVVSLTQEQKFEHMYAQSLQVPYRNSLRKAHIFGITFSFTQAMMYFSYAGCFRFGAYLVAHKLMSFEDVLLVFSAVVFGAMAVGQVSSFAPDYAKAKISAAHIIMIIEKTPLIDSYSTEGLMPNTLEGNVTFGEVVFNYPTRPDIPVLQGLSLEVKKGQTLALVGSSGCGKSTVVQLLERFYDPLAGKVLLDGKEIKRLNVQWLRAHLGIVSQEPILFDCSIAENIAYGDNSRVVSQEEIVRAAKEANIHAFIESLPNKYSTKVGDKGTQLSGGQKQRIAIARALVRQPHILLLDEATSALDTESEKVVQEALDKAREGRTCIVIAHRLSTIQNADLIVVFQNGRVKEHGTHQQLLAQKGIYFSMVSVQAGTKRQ
# [21] = Intrinsic clearance in human hepatocytes measured per million cells; assay type: ADME, cell-based, Hepatocyte; details: read-out: CLH
# [22] = Fraction unbound in human plasma at 1 uM by rapid equilibrium dialysis based LC-MS/MS analysis; assay type: ADME, cell-free
# Cytochrome P450 2D6 = Cytochrome P450 2D6 (Homo sapiens, UniProt P10635); experiment: Inhibition of CYP2D6 (unknown origin); assay type: ADME
# Sequence of Cytochrome P450 2D6 (P10635 whole entry): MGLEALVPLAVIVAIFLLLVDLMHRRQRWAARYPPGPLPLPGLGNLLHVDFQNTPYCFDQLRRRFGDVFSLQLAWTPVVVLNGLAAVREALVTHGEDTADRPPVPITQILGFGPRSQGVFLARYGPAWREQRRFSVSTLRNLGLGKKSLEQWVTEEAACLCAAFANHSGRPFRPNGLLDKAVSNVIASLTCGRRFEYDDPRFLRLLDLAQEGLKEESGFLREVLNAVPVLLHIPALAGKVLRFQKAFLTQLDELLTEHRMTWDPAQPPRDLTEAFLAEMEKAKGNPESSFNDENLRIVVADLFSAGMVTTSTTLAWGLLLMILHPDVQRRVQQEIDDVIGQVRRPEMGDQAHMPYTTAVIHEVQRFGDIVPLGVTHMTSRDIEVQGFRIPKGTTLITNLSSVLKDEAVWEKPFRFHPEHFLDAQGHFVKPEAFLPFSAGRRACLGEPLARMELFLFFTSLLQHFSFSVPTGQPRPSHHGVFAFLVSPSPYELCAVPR
# [23] = Fraction unbound in dog plasma at 1 uM by rapid equilibrium dialysis based LC-MS/MS analysis; assay type: ADME, cell-free, Canis lupus familiaris
# [24] = Volume of distribution at steady state in Wistar rat at 3 mg/kg, iv; assay type: ADME, organism-based; details: in vivo, read-out: Vdss
# [25] = Half life in Beagle dog at 1 mg/kg, iv; assay type: ADME, organism-based, Canis lupus familiaris; details: in vivo
# [26] = Volume of distribution at steady state in Beagle dog at 1 mg/kg, iv; assay type: ADME, organism-based, Canis lupus familiaris; details: in vivo, read-out: Vdss
# [27] = Half life in Wistar rat at 3 mg/kg, iv; assay type: ADME, organism-based; details: in vivo
# [28] = Cmax in Beagle dog at 3 mg/kg, po; assay type: ADME, organism-based, Canis lupus familiaris; details: in vivo
# HepaRG = experiment: Cytotoxicity against human HepaRG cells assessed as leakage of intracellular LDH at 100 uM incubated for 24 hrs by spectrophotometry; assay type: toxicity, cell-based
# [29] = target: T3, Solute carrier organic anion transporter family member 1B3 (Homo sapiens, UniProt Q9NPD5); experiment: Inhibition of OATP1B3 (unknown origin)
# T3 sequence (Q9NPD5 whole entry): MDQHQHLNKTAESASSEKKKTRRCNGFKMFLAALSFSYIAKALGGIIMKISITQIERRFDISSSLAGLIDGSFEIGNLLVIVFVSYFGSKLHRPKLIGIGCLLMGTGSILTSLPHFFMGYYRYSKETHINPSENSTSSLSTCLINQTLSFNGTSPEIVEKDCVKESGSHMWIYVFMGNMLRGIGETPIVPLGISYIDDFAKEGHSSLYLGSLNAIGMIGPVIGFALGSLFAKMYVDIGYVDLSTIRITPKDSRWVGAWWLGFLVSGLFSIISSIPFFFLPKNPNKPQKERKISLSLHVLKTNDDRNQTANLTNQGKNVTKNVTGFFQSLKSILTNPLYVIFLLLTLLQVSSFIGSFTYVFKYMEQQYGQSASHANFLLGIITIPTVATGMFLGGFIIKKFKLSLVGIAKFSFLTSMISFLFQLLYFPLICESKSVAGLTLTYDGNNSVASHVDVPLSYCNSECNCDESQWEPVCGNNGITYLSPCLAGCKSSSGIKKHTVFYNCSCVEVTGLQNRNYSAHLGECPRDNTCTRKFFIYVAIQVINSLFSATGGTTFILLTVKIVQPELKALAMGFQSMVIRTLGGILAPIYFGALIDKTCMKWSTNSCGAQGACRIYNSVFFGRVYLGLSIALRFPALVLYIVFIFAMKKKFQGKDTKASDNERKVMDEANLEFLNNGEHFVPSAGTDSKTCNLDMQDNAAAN
# Cytochrome P450 2C9 = Cytochrome P450 2C9 (Homo sapiens, UniProt P11712); experiment: Inhibition of CYP2C9 (unknown origin); assay type: ADME
# Sequence of Cytochrome P450 2C9 (P11712 whole entry): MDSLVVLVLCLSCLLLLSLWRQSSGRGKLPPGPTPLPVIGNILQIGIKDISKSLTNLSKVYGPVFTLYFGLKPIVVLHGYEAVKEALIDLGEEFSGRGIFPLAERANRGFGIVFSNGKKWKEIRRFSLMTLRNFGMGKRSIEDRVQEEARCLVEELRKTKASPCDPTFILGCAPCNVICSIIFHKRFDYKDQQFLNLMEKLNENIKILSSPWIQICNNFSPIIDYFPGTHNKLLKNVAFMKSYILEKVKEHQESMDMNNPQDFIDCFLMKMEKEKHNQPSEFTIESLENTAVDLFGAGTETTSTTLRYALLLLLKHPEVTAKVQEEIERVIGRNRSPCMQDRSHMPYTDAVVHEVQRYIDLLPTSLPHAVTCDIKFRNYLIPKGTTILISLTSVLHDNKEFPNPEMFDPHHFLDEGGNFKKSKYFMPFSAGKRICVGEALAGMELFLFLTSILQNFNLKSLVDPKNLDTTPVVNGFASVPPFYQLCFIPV
# [30] = AUC in Beagle dog at 1 mg/kg, iv; assay type: ADME, organism-based, Canis lupus familiaris; details: in vivo
# [31] = Intrinsic clearance in dog liver microsomes at 1 uM measured for 15 mins in presence of NADPH regenerating system by LC-MS/MS analysis; assay type: ADME, Canis lupus familiaris, Microsome; details: read-out: CLH
# [32] = Intrinsic clearance in human hepatocytes in presence of ABT measured per million cells; assay type: ADME, cell-based, Hepatocyte; details: with ABT, read-out: CLH
# [33] = Tmax in Beagle dog at 1 mg/kg, iv; assay type: ADME, organism-based, Canis lupus familiaris; details: in vivo
# Cytochrome P450 3A4 [34] = target: T1, Cytochrome P450 3A4; experiment: Induction of CYP3A4 (unknown origin); assay type: ADME
# Cytochrome P450 3A4 [35] = target: T1, Cytochrome P450 3A4; experiment: Time dependent inhibition of CYP3A4 (unknown origin); assay type: ADME
# [36] = Tmax in Wistar rat at 100 mg/kg, po; assay type: ADME, organism-based; details: in vivo
smiles,measurement,setting,value
CC(C)c1ccc([C@](O)(c2cccc(-c3noc(C(C)(C)O)n3)c2)C2(C)CN(C)C2)cc1,Papp A→B,[1],0.3 ×10⁻⁶ cm/s
same,bioavailability,[2],19%
same,IC50,Cytochrome P450 3A4 [3],> 50 µM
same,IC50,[4],> 50 µM
same,solubility,[5],100 µg/mL
same,solubility,[6],> 10000 µg/mL
same,bioavailability,[7],95%
same,Cmax,[8],103 ng/mL
same,clearance,[9],38 mL/min/kg
same,AUC,[10],2770 ng·h/mL
same,AUC,[11],443 ng·h/mL
same,bioavailability,[12],25%
same,Cmax,[13],822 ng/mL
same,clearance,[14],110 mL/min/kg
same,solubility,[15],> 100000 µg/mL
same,AUC,[16],332 ng·h/mL
same,Tmax,[17],48 min
same,AUC,[18],4160 ng·h/mL
same,"microsomal CLint at […], 1 µM",[19],< 10 µL/min/mg
same,IC50,[20],19 µM
same,hepatocyte CLint,[21],3.6 µL/min/1e6 cells
same,fraction unbound at 1 µM,[22],0.35
same,IC50,Cytochrome P450 2D6,0.15 µM
same,fraction unbound at 1 µM,[23],0.33
same,Vd,[24],23 L/kg
same,half-life,[25],282 min
same,Vd,[26],11 L/kg
same,half-life,[27],216 min
same,Cmax,[28],956 ng/mL
same,Activity,HepaRG,Non-Toxic
same,IC50,[29],> 50 µM
same,IC50,Cytochrome P450 2C9,> 50 µM
same,AUC,[30],436 ng·h/mL
same,"microsomal CLint at […], 1 µM",[31],17 µL/min/mg
same,hepatocyte CLint,[32],< 2 µL/min/1e6 cells
same,Tmax,[33],48 min
same,Activity,Cytochrome P450 3A4 [34],Not Active
same,TDI,Cytochrome P450 3A4 [35],Not Active
same,Tmax,[36],18 min
